# In US20150224164A1, “TREATMENT OF AUTISM SPECTRUM DISORDERS USING GLYCYL-L-2-METHYLPROLYL-L-GLUMATIC ACID” (Neuren Pharmaceuticals Limited, priority 2013, published 2015):
# Where a SMILES comes first, the peptide text is derived from it.
# Key:
# RTT iPSC-derived neurons = assay: In vitro human model of Rett Syndrome, iPSC-derived neurons (Example 14); type: cell-based; conditions: 1 nM-10 μM for 1 week
# Experimental: RTT fibroblasts (carrying 4 distinct MeCP2 mutations) and control fibroblasts are generated from explants of dermal biopsies. The shRNA against target MeCP2 gene is cloned into the LentiLox3.7 lentivirus vector (as described in Marchetto et al.). The fibroblasts are infected with retroviral reprogramming vectors (Sox2, Oct4, c-Myc and Klf4). Two days after infection, fibroblasts are plated on mitotically inactivated mouse embryonic fibroblasts with hESC medium. After 2 weeks, iPSC colonies that emerge from the background of fibroblasts are manually picked and transferred to feeder-free conditions on matrigel-coated dishes (BD) using embryonic stem cell culture media mTeSR™ (Stem Cell Technologies) and passaged manually. Gene expression profiles of the generated clones are measured using human genome Affymetrix Gene Chip™ arrays to confirm that reprogramming is successful. […]
# Cells are fixed in 4% paraformaldehyde and permeabilized with 0.5% Triton-X100 in PBS. […] Fluorescent signals are detected using a Zeiss inverted microscope and images are processed with Photoshop CS3. The following primary antibodies are used: TRA-1-60, TRA-1-81 (1:100), Nanog and Lin28 (1:500), human Nestin (1:100), Tuj-1 (1:500), Map2 (1:100); meCP2 (1:1000; VGLUT1 (1:200), Psd95 (1:500), GFP (1:200), Sox1 (1:250), Mushasil (1:200) and me3H3K27 (1:500). Cell soma size is measured using suitable software (e.g. ImageJ) after identification of neurons using the Syn::EGFP™. The morphologies of neuronal dendrites and spines are studied from an individual projection of z-stacks optical sections and scanned at 0.5 um increments that correlate with the resolution valued at z-plane. Each optical section is the result of 3 scans at 500 lps followed by Kalman filtering. For synapse quantification, images are taken by a z-step of 1 um using Biorad radiance 2100™ confocal microscope. Synapse quantification is done blinded to genotype. Only VGLUT1 puncta along Map2-positive processes are counted. […]
# [1] = test system: neurons in the CA3 region of the hippocampus; assay: Neuron soma size in hippocampus CA3 (Example 10); type: in vivo, mouse
# Experimental: We also measure the effect of G-2-MePE treatment on neuron soma size in the hippocampus. Mice are treated with G-2-MePE as described above for locomotor activity.
# ERK1/2 = assay: Western blot of ERK and phosphorylated ERK; type: in vivo, mouse; conditions: 100 mg/kg 4 weeks, 12 days after last injection
# Experimental: Phosphorylated Extracellular Signal-Regulated Protein Kinase (ERK) and Protein Kinase B (Akt) expression was measured by Western blot analysis in lymphocytes from fmr1 KO and wild-type animals administered ether vehicle or G-2MePE (100 mg/kg, i.p.; 28 days) treated in the behavior experiments as previously described (Lopez Verrilli et al. 2009). ERK is a classical MAPK signal transduction protein, responsible for growth factor transduction, proliferation, cytokine response to stress and apoptosis. […]
# To conduct the western blots, antibodies were used against Akt ( 1/1000) (Cell Signaling), ERK1/2 ( 1/2000) (Cell Signaling), antiphospho-Akt ( 1/1000) and antiphospho-ERK ( 1/2000) (Cell Signaling). Total Akt and ERK 1/2 protein content (phosphorylated) were evaluated by blotting membranes with antiphospho-Akt ( 1/1000) and antiphospho-ERK antibodies ( 1/2000) (Cell Signaling). Akt or ERK phosphorylation was normalized to protein content in the same sample and expressed as % of change with respect to basal conditions, considering basal levels as 100%. Protein loading was evaluated by stripping and re-blotting membranes with b-actin antibody ( 1/1000) (Sigma Chemical Co.). […]
structure (smiles),measurement,setting,value
"C[C@@]1(C(=O)N[C@@H](CCC(=O)O)C(=O)O)CCCN1C(=O)CN [Example G-2-MePE, Glycyl-L-2-methylprolyl-L-glutamic acid] (HELM PEPTIDE1{G.[C[C@@]1(C(=O)[*:2])CCCN1[*:1]].E}$$$$V2.0)","frequency and amplitude of spontaneous post-synaptic currents, frequency of calcium transients",RTT iPSC-derived neurons,normalizes
same,glutamatergic synapse numbers,RTT iPSC-derived neurons,significant increase
same,VGLUT1 puncta number,RTT iPSC-derived neurons; all concentrations,increase VGLUT1 puncta number
same,average soma size,[1]; KO animals,increases average soma size
same,soma size,[1]; wild type animals,little or no effect
same,phosphorylated ERK1/2 (pERK),"ERK1/2; fmr1 KO vs vehicle, p<0.05",significantly reduced
same,total ERK expression levels,ERK1/2; fmr1 KO,increase in ERK expression levels
